Test results: US8389557B2, “Triazole derivatives useful as Axl inhibitors” (Rigel Pharmaceuticals, Inc., priority 2005, dated 2013)

Biological target: T1, Axl (Homo sapiens, UniProt P30530)
T1 construct: endogenous in cells; host or cells: HeLa cells
T1 sequence (P30530 26-894): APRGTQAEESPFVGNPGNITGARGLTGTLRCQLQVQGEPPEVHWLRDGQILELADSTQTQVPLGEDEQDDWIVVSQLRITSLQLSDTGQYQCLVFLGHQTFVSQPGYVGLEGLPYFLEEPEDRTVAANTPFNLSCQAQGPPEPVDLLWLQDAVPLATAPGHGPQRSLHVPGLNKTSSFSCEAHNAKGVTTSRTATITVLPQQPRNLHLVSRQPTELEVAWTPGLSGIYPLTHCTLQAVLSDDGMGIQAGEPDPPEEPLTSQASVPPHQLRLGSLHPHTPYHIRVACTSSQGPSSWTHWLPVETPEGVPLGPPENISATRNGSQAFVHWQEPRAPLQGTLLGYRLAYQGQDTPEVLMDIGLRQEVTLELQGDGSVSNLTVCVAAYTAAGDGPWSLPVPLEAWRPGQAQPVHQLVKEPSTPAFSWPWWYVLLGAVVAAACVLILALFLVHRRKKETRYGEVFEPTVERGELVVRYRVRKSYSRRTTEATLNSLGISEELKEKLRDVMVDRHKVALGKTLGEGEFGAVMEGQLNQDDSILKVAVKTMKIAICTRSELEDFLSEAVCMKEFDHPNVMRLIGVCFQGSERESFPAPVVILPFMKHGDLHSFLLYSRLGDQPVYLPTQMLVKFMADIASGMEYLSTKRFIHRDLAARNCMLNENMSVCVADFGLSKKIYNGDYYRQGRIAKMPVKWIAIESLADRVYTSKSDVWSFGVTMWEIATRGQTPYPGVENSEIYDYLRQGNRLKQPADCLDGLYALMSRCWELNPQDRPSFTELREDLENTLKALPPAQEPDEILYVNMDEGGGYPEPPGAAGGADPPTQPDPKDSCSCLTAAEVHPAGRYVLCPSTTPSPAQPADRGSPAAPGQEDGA
Experiment: Phospho-Akt in-cell Western assay (inhibition of Axl activity)
Assay type: cell-based
How it was run: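 HeLa cells on poly-L-lysine, starved 24 h in 0.5% FCS DMEM with Axl/Fc 500 ng/mL, pre-treated with compound 1 h at 37° C. Axl stimulated 5 min by anti-Axl/anti-mouse antibody cross-linking. Fixed cells probed with anti-phospho-Akt and HRP secondary, chemiluminescence read.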

[1] = Table 6, Hela cells, Axl antibody cross-linking stimulation, phospho-Akt chemiluminescence
[2] = Table 5, Hela cells, Axl antibody cross-linking stimulation, phospho-Akt chemiluminescence
[3] = inhibition of Axl activity, phospho-Akt in-cell Western assay, Table 1
[4] = Table 2, Hela cells, Axl antibody cross-linking stimulation, phospho-Akt chemiluminescence
[5] = Table 3, Hela cells, Axl antibody cross-linking stimulation, phospho-Akt chemiluminescence
[6] = Table 4, Hela cells, Axl antibody cross-linking stimulation, phospho-Akt chemiluminescence

## CN(C)c1cccc(C(=O)n2nc(N)nc2NC2C3C=CC(C3)C2C(N)=O)c1 (centres unmarked) [compound 351, 3-amino-1-(3-(dimethylamino)phenyl)carbonyl-5-[(3-(aminocarbonyl)bicyclo[2.2.1]hept-5-en-2-yl)amino]-1H-1,2,4-triazole]
[1]
  IC50: > 20000 nM

## CN(C)c1cccc(C(=O)n2nc(NC3C4C=CC(C4)C3C(N)=O)nc2N)c1 (centres unmarked) [compound 352, 5-amino-1-(3-(dimethylamino)phenyl)carbonyl-3-[(5-(aminocarbonyl)bicyclo[2.2.1]hept-2-en-6-yl)amino]-1H-1,2,4-triazole]
[2]
  IC50: > 20000 nM

## CC(C)Oc1ccc(C(=O)n2nc(N)nc2NC2C3C=CC(C3)C2C(N)=O)cc1 (centres unmarked) [compound 353, 3-amino-1-(4-(iso-propoxy)phenyl)carbonyl-5-[(3-(aminocarbonyl)bicyclo[2.2.1]hept-5-en-2-yl)amino]-1H-1,2,4-triazole]
[1]
  IC50: > 20000 nM

## CC(C)Oc1ccc(C(=O)n2nc(NC3C4C=CC(C4)C3C(N)=O)nc2N)cc1 (centres unmarked) [compound 354, 5-amino-1-(4-(iso-propoxy)phenyl)carbonyl-3-[(5-(aminocarbonyl)bicyclo[2.2.1]hept-2-en-6-yl)-amino]-1H-1,2,4-triazole]
[2]
  IC50: > 20000 nM

## NC(=O)C1C2C=CC(C2)C1Nc1nc(N)nn1C(=O)c1ccc2cc[nH]c2c1 (centres unmarked) [compound 355, 3-amino-1-(1H-indol-6-yl)carbonyl-5-[(3-(aminocarbonyl)bicyclo[2.2.1]hept-5-en-2-yl)amino]-1H-1,2,4-triazole]
Table 10, Hela cells, Axl antibody cross-linking stimulation, phospho-Akt chemiluminescence
  IC50: > 20000 nM

## NC(=O)C1C2C=CC(C2)C1Nc1nc(N)n(C(=O)c2ccc3cc[nH]c3c2)n1 (centres unmarked) [compound 356, 5-amino-1-(1H-indol-6-yl)carbonyl-3-[(5-(aminocarbonyl)bicyclo[2.2.1]hept-2-en-6-yl)amino]-1H-1,2,4-triazole]
Table 9, Hela cells, Axl antibody cross-linking stimulation, phospho-Akt chemiluminescence
  IC50: > 20000 nM

## CN1CCN(c2ccc(Nc3nc(N)n(C(=O)c4ccc(OC(C)(C)C)cc4)n3)cc2)CC1 [compound 357, 5-amino-1-(4-(tert-butoxy)phenyl)carbonyl-3-[4-(4-methylpiperazin-1-yl)phenylamino]-1H-1,2,4-triazole]
[3]
  IC50: < 1000 nM

## CN1CCN(c2ccc(Nc3nc(N)n(C(=O)c4cccc(OC(C)(C)C)c4)n3)cc2)CC1 [compound 358, 5-amino-1-(3-(tert-butoxy)phenyl)carbonyl-3-[4-(4-methylpiperazin-1-yl)phenylamino]-1H-1,2,4-triazole]
[3]
  IC50: < 1000 nM

## CC(C)Oc1ccc(C(=O)n2nc(Nc3ccc(N4CCN(C)CC4)cc3)nc2N)cc1 [compound 359, 5-amino-1-(4-(iso-propoxy)phenyl)carbonyl-3-[4-(4-methylpiperazin-1-yl)phenylamino]-1H-1,2,4-triazole]
[3]
  IC50: < 1000 nM

## CC(C)Oc1ccc(C(=O)n2nc(N)nc2Nc2ccc(N3CCN(C)CC3)cc2)cc1 [compound 360, 3-amino-1-(4-(iso-propoxy)phenyl)carbonyl-5-(4-(4-methylpiperazin-1-yl)phenylamino]-1H-1,2,4-triazole]
[4]
  IC50: 1000 to 10000 nM

## CN1CCN(c2ccc(Nc3nc(N)n(C(=O)c4ccc(N(C)C)cc4)n3)cc2)CC1 [compound 361, 5-amino-1-(4-(dimethylamino)phenyl)carbonyl-3-[4-(4-methylpiperazin-1-yl)phenylamino]-1H-1,2,4-triazole]
[3]
  IC50: < 1000 nM

## CN1CCN(c2ccc(Nc3nc(N)nn3C(=O)c3ccc(N(C)C)cc3)cc2)CC1 [compound 362, 3-amino-1-(4-(dimethylamino)phenyl)carbonyl-5-(4-(4-methylpiperazin-1-yl)phenylamino]-1H-1,2,4-triazole]
[4]
  IC50: 1000 to 10000 nM

## CN1CCN(c2ccc(Nc3nc(N)n(C(=O)c4cccc(N(C)C)c4)n3)cc2)CC1 [compound 363, 5-amino-1-(3-(dimethylamino)phenyl)carbonyl-3-[4-(4-methylpiperazin-1-yl)phenylamino]-1H-1,2,4-triazole]
[3]
  IC50: < 1000 nM

## CN1CCN(c2ccc(Nc3nc(N)nn3C(=O)c3cccc(N(C)C)c3)cc2)CC1 [compound 364, 3-amino-1-(3-(dimethylamino)phenyl)carbonyl-5-(4-(4-methylpiperazin-1-yl)phenylamino]-1H-1,2,4-triazole]
[4]
  IC50: 1000 to 10000 nM

## CN1CCN(c2ccc(Nc3nc(N)n(C(=O)C4CC5CCC4C5)n3)cc2)CC1 (centres unmarked) [compound 365, 5-amino-1-(bicyclo[2.2.1]heptan-2-yl)carbonyl-3-[4-(4-methylpiperazin-1-yl)phenylamino]-1H-1,2,4-triazole]
[5]
  IC50: > 20000 nM

## Nc1nc(Nc2ccc(OCCN3CCCC3)cc2)nn1C(=O)c1c[nH]c2ccccc12 [compound 366, 5-amino-1-(1H-indol-3-yl)carbonyl-3-[4-[2-(pyrrolidin-1-yl)ethoxy]phenylamino]-1H-1,2,4-triazole]
[5]
  IC50: 1000 to 10000 nM

## Nc1nc(Nc2ccc(OCCN3CCCC3)cc2)nn1C(=O)c1cc2ccccc2s1 [compound 367, 5-amino-1-(benzo[b]thiophen-2-yl)carbonyl-3-[4-[2-(pyrrolidin-1-yl)ethoxy]phenylamino]-1H-1,2,4-triazole]
[5]
  IC50: < 1000 nM

## Nc1nc(Nc2ccc(OCCN3CCCC3)cc2)n(C(=O)c2cc3ccccc3s2)n1 [compound 368, 3-amino-1-(benzo[b]thiophen-2-yl)carbonyl-5-[4-[2-(pyrrolidin-1-yl)ethoxy]phenylamino]-1H-1,2,4-triazole]
[6]
  IC50: 1000 to 10000 nM

## Nc1nc(Nc2ccc(OCCN3CCCC3)cc2)nn1C(=O)c1ccc2sccc2c1 [compound 369, 5-amino-1-(benzo[b]thiophen-5-yl)carbonyl-3-[4-[2-(pyrrolidin-1-yl)ethoxy]phenylamino]-1H-1,2,4-triazole]
[5]
  IC50: < 1000 nM

## CC(C)(C)Oc1ccc(C(=O)n2nc(Nc3ccc(OCCn4ccnc4)cc3)nc2N)cc1 [compound 370, 5-amino-1-(4-(tert-butoxy)phenyl)carbonyl-3-[4-[2-(imidazol-1-yl)ethoxy]phenylamino]-1H-1,2,4-triazole]
[3]
  IC50: < 1000 nM

## CC(C)(C)Oc1cccc(C(=O)n2nc(Nc3ccc(OCCn4ccnc4)cc3)nc2N)c1 [compound 371, 5-amino-1-(3-(tert-butoxy)phenyl)carbonyl-3-[4-[2-(imidazol-1-yl)ethoxy]phenylamino]-1H-1,2,4-triazole]
[3]
  IC50: 1000 to 10000 nM

## CC(C)Oc1ccc(C(=O)n2nc(Nc3ccc(OCCn4ccnc4)cc3)nc2N)cc1 [compound 372, 5-amino-1-(4-(iso-propoxy)phenyl)carbonyl-3-[4-[2-(imidazol-1-yl)ethoxy]phenylamino]-1H-1,2,4-triazole]
[3]
  IC50: < 1000 nM

## CN(C)c1ccc(C(=O)n2nc(Nc3ccc(OCCn4ccnc4)cc3)nc2N)cc1 [compound 373, 5-amino-1-(4-(dimethylamino)phenyl)carbonyl-3-[4-[2-(imidazol-1-yl)ethoxy]phenylamino]-1H-1,2,4-triazole]
[3]
  IC50: < 1000 nM

## CN(C)c1cccc(C(=O)n2nc(Nc3ccc(OCCn4ccnc4)cc3)nc2N)c1 [compound 374, 5-amino-1-(3-(dimethylamino)phenyl)carbonyl-3-[4-[2-(imidazol-1-yl)ethoxy]phenylamino]-1H-1,2,4-triazole]
[3]
  IC50: 1000 to 10000 nM

## Nc1nc(Nc2ccc(OCCn3ccnc3)cc2)nn1C(=O)c1ccc2cc[nH]c2c1 [compound 375, 5-amino-1-(1H-indol-6-yl)carbonyl-3-[4-[2-(imidazol-1-yl)ethoxy]phenylamino]-1H-1,2,4-triazole]
[5]
  IC50: < 1000 nM

## Nc1nc(Nc2ccc(OCCn3ccnc3)cc2)n(C(=O)c2ccc3cc[nH]c3c2)n1 [compound 376, 3-amino-1-(1H-indol-6-yl)carbonyl-5-[4-[2-(imidazol-1-yl)ethoxy]phenylamino]-1H-1,2,4-triazole]
[6]
  IC50: < 1000 nM

## Nc1nc(Nc2ccc(OCCn3ccnc3)cc2)nn1C(=O)c1ccc2sccc2c1 [compound 377, 5-amino-1-(benzo[b]thiophen-5-yl)carbonyl-3-[4-[2-(imidazol-1-yl)ethoxy]phenylamino]-1H-1,2,4-triazole]
[5]
  IC50: < 1000 nM

## Nc1nc(Nc2ccc(OCCn3ccnc3)cc2)n(C(=O)c2ccc3sccc3c2)n1 [compound 378, 3-amino-1-(benzo[b]thiophen-5-yl)carbonyl-5-[4-[2-(imidazol-1-yl)ethoxy]phenylamino]-1H-1,2,4-triazole]
[6]
  IC50: < 1000 nM

## Nc1nc(Nc2ccc(OCCn3ccnc3)cc2)nn1C(=O)c1cc2ccccc2s1 [compound 379, 5-amino-1-(benzo[b]thiophen-2-yl)carbonyl-3-[4-[2-(imidazol-1-yl)ethoxy]phenylamino]-1H-1,2,4-triazole]
[5]
  IC50: < 1000 nM
